We go through 32 molecules from patent US6624196B2, “Benzene butyric acids and their derivatives as inhibitors of matrix metalloproteinases” (Warner-Lambert Company, priority 1999, dated 2003).

Data set [1] concerns the target T1, MMP-2CD (gelatinase A catalytic domain) (Homo sapiens, UniProt P08253, DEL220-393).
T1 construct: Experiments were carried out with the catalytic domains of the proteinases
In words: Thiopeptolide substrate assay, gelatinase A catalytic domain. The class given is biochemical. The conditions noted are these: for inhibition at 10 µM: read-out: % inhibition of the enzyme MMP-2CD; for IC50: thiopeptolide substrate, catalytic domain. How it is done: (§1) Experiments were carried out with the catalytic domains of the proteinases. […] IC50 values were determined using a thiopeptolide substrate, Ac-Pro-Leu-Gly-thioester-Leu-Leu-Gly-OEt (ye Q. -Z., Johnson L. L., Hupe D. J., and Baragi V., “Purification and Characterization of the Human Stromelysin Catalytic Domain Expressed in Escherichia coli,” Biochemistry, 1992;31:11231-11235; ye Q. -Z., Johnson L. L., yu A. E., and Hupe D., “Reconstructed 19 kDa catalytic domain of gelatinase A is an active proteinase,” Biochemistry, 1995;34:4702-4708.) MMP-13CD was expressed from a synthetic gene and purified from Escherichia coli cell culture according to a previously described method (ye Q. -Z., Johnson L. L., and Baragi V., “Gene synthesis and expression in E. coli for PUMP, a human matrix metalloproteinase,” Biochemical and Biophysical Research Communications, 1992;186:143-149.)

Data set [2] deals with T2, MMP-3CD (stromelysin-1 catalytic domain) (Homo sapiens, UniProt P08254).
T2 construct: Experiments were carried out with the catalytic domains of the proteinases; made in house; host or cells: Escherichia coli
Description: Thiopeptolide substrate assay, stromelysin-1 catalytic domain. It is filed as biochemical. The conditions noted are these: for inhibition at 10 µM: read-out: % inhibition of the enzyme MMP-3CD; for IC50: thiopeptolide substrate, catalytic domain. The method, then:
as §1

Data set [3] deals with T3, MMP-13CD (collagenase-3 catalytic domain) (Homo sapiens, UniProt P45452).
T3 construct: Experiments were carried out with the catalytic domains of the proteinases; made in house; host or cells: Escherichia coli
Description: Thiopeptolide substrate assay, collagenase-3 catalytic domain. The class given is biochemical. To be noted: for inhibition at 10 µM: read-out: % inhibition of the enzyme MMP-13CD; for IC50: thiopeptolide substrate, catalytic domain. The method, then:
as §1

[4] abbreviates: 10 μM concentration of inhibitor (footnote a, Examples 8 through 25).

T1 sequence (P08253 with tags, fused parts or gaps DEL220-393): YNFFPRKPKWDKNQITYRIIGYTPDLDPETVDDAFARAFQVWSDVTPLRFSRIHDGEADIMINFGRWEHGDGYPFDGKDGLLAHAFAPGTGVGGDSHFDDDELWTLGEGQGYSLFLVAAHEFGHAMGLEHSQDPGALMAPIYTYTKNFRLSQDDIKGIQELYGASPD
T2 sequence (P08254 100-272 limits assumed): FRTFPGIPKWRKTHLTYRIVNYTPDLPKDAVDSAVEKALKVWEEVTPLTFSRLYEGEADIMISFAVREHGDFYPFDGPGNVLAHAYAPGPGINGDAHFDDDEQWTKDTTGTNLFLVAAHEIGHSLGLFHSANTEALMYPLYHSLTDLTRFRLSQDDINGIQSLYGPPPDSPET

Consider `CCCCCCCCCC(=O)Nc1ccc(C(=O)CCC(=O)O)cc1` [Example 23], for which, in data set [1] (setting [4]), the “% inhibition of the enzyme MMP-2CD” value is 54%. For the same molecule, the “% inhibition of the enzyme MMP-3CD” value in data set [2] (setting [4]) worked out at 39%. Moreover, the “% inhibition of the enzyme MMP-13CD” value in data set [3] (setting [4]) is reported as 0%.
Regarding `COc1cccc(C(=O)Nc2ccc(C(=O)CCC(=O)O)cc2)c1` [Example 12, 4-[4-(3-Methoxy-benzoylamino)-phenyl]-4-oxo-butyric acid], the inhibition at 10 µM in data set [1] (setting [4]) turned out to be 75%; in data set [2] (setting [4]) it was 31%; in data set [3] (setting [4]) it was 11%.
With `CCCCCCCCC(=O)Nc1ccc(C(=O)CCC(=O)O)cc1` [Example 9, 4-[4-(Nonanoylamino)-phenyl]-4-oxo-butyric acid], the inhibition at 10 µM in data set [1] (setting [4]) was determined as 85%; in data set [2] (setting [4]), 75%; in data set [3] (setting [4]), 3%.
Take “4-[4-(Carboxy-acetylamino)-phenyl]-4-oxo-butyric acid [Example 36]”: the IC50 in data set [1] amounted to 41 µM; in data set [2], 17 µM.
For the molecule “4-Hydroxyimino-4-[(4-methyl-benzoyl)amino-phenyl]-butyric acid [Example 2]”, the results for the IC50 in data set [1], in data set [2] and in data set [3] were 0.41 µM, 1.1 µM and 3.8 µM, respectively.
Regarding `CCCCCCC(=O)Nc1ccc(C(=O)CCC(=O)O)cc1` [Example 15, 4-[4-(Heptanoylamino)-phenyl]-4-oxo-butyric acid], the figures for the inhibition at 10 µM in data set [1] (setting [4]), in data set [2] (setting [4]) and in data set [3] (setting [4]) were 83%, 70% and 11%, respectively.
Turning to `CCCCOc1ccc(C(=O)Nc2ccc(C(=O)CCC(=O)O)cc2)cc1` [Example 17, 4-[4-(4-Butoxy-benzoylamino)-phenyl]-4-oxo-butyric acid], the inhibition at 10 µM in data set [1] (setting [4]) amounted to 97%; in data set [2] (setting [4]) it was 78%; in data set [3] (setting [4]), 65%.
In the same order, the values of `CCCCCCCC(=O)Nc1ccc(C(=O)CCC(=O)O)cc1` [Example 10, 4-[4-(Octanoylamino)-phenyl]-4-oxo-butyric acid] are 79%, 66% and 8%.
For the molecule `Cc1ccc(C(=O)Nc2ccc(C(=O)CCC(=O)O)cc2)cc1` [Example 1, 4-[4-(4-Methyl-benzoylamino)-phenyl]-4-oxo-butyric acid], the values for the IC50 in data set [1], in data set [2] and in data set [3] were 0.22 µM, 1.55 µM and 5.8 µM, respectively.
Consider `COc1cc(OC)cc(C(=O)Nc2ccc(C(=O)CCC(=O)O)cc2)c1` [Example 24, 4-[4-(3,5-Dimethoxy-benzoylamino)-phenyl]-4-oxo-butyric acid], for which the inhibition at 10 µM in data set [1] (setting [4]) amounted to 15%; in data set [2] (setting [4]), 4%; in data set [3] (setting [4]), 0%.
For `O=C(O)CCC(=O)c1ccc(NC(=O)c2cccnc2)cc1` [Example 8, 4-[4-(Pyridin-3-yl-carbonylamino)-phenyl]-4-oxo-butyric acid], the figures for the inhibition at 10 µM in data set [1] (setting [4]), in data set [2] (setting [4]) and in data set [3] (setting [4]) were 15%, 3% and 0%, respectively.
Take `O=C(O)CCC(=O)Nc1ccc(C(=O)CCC(=O)O)cc1` [Example 35, 4-[4-(3—Carboxy-propionylamino)-phenyl]-4-oxo-butyric acid]: the figures for the concentration for half-maximal inhibition (IC50) in data set [1] and in data set [2] were 38 µM and 13 µM, respectively.
For `O=C(O)CCC(=O)c1ccc(NC(=O)c2ccc(Br)cc2)cc1` [Example 20, 4-[4-(4-Bromo-benzoylamino)-phenyl]-4-oxo-butyric acid], the inhibition at 10 µM in data set [1] (setting [4]) is 93%; in data set [2] (setting [4]), 81%; in data set [3] (setting [4]) it was 30%.
Regarding `CCC(=O)Nc1ccc(C(=O)CCC(=O)O)cc1` [Example 11, 4—oxo-4-[4-(propionylamino)-phenyl]-butyric acid], the inhibition at 10 µM in data set [1] (setting [4]) is 46%; in data set [2] (setting [4]), 21%; in data set [3] (setting [4]), 9%.
Consider `O=C(O)CCC(=O)c1ccc(NC(=O)c2ccc(F)cc2F)cc1` [Example 30, 4-[4-(2,4-Difluoro-benzoylamino)-phenyl]-4-oxo-butyric acid], for which the IC50 in data set [1] amounted to 0.93 µM; in data set [2] it was 5 µM.
Turning to `O=C(O)CCC(=O)c1ccc(NC(=O)C2CCCCC2)cc1` [Example 7, 4-[4-(Cyclohexane-carbonyllamino)-phenyl]-4-oxo-butyric acid], the melting point was in the range of 195 to 198 °C. Moreover, the IC50 in data set [2] stood at 20 µM.
The molecule `O=C(O)CCC(=O)c1ccc(NC(=O)CCc2ccccc2)cc1` [Example 34, 4—oxo-4-[4-(3-phenyl-propionylamino)-phenyl]-butyric acid] registered an IC50 in data set [2] of 6.6 µM.
`O=C(O)CCC(=O)c1ccc(NC(=O)CCCc2ccc(Br)cc2)cc1` [Example 14, 4-{4-[4-(4-Bromo-phenyl)-butyrylamino]-phenyl}-4-oxo-butyric acid]: the inhibition at 10 µM in data set [1] (setting [4]) is 26%; in data set [2] (setting [4]) it was 48%; in data set [3] (setting [4]), 7%.
In the case of `O=C(O)CCC(=O)c1ccc(NC(=O)Cc2ccccc2)cc1` [Example 33, 4—oxo-4-[4-(phenyl-acetylamino)-phenyl]-butyric acid], the IC50 in data set [1] came to 52 µM; in data set [2], 24 µM.
Consider `COc1ccccc1C(=O)Nc1ccc(C(=O)CCC(=O)O)cc1` [Example 25, 4-[4-(2-Methoxy-benzoylamino)-phenyl]-4-oxo-butyric acid], for which the inhibition at 10 µM was determined as 18% in data set [1] (setting [4]), 13% in data set [2] (setting [4]) and 0% in data set [3] (setting [4]).
Take `O=C(O)CCC(=O)c1ccc(NC(=O)c2ccco2)cc1` [Example 32, 4-[4-(2-Furoylamino)-phenyl]-4-oxo-butyric acid]: the IC50 in data set [1] was determined as 0.91 µM; in data set [2], 19 µM.
Take `O=C(O)CCC(=O)c1ccc(NC(=O)c2ccc(Cl)cc2Cl)cc1` [Example 13, 4-[4-(2,4-Dichloro-benzoylamino)-phenyl]-4-oxo-butyric acid]: the figures for the inhibition at 10 µM in data set [1] (setting [4]), in data set [2] (setting [4]) and in data set [3] (setting [4]) were 26%, 11% and 0%, respectively.
For `O=C(O)CCC(=O)c1ccc(NC(=O)C=Cc2ccccc2)cc1` [Example 19, 4-[4-(Cinnamoylamino)-phenyl]-4-oxo-butyric acid], the values for the inhibition at 10 µM in data set [1] (setting [4]), in data set [2] (setting [4]) and in data set [3] (setting [4]) were 86%, 72% and 9%, respectively.
Turning to `O=C(O)CCC(=O)c1ccc(NC(=O)c2ccc(Cl)cc2)cc1` [Example 26, 4-[4-(4—Chloro-benzoylamino)-phenl]-4-oxo-butyric acid], the IC50 in data set [1] worked out at 0.12 µM; in data set [2], 0.82 µM; in data set [3], 24 µM.
On to “4-[4-(Benzoylamino)-phenyl]-4-oxo-butyric acid [Example 28]”, for which the figures for the IC50 in data set [1], in data set [2] and in data set [3] were 0.11 µM, 0.55 µM and 17 µM, respectively.
With `O=C(O)CCC(=O)c1ccc(NC(=O)c2ccc(Cl)c([N+](=O)[O-])c2)cc1` [Example 18, 4-[4-(4—Chloro-3-nitro-benzoylamino)-phenyl]-4-oxo-butyric acid], the inhibition at 10 µM in data set [1] (setting [4]) was determined as 82%; in data set [2] (setting [4]), 38%; in data set [3] (setting [4]) it was 16%.
Regarding `O=C(O)CCC(=O)c1ccc(NC(=O)c2cccs2)cc1` [Example 31, 4—oxo-4-[4-(thiophen-2-yl-carbonylamino)-phenyl]-butyric acid], the IC50 was 0.13 µM in data set [1], 1.7 µM in data set [2] and 19 µM in data set [3].
In the case of `O=C(O)CCC(=O)c1ccc(NC(=O)c2cccc([N+](=O)[O-])c2)cc1` [Example 21, 4-[4-(3-Nitro-benzoylamino)-phenyl]-4-oxo-butyric acid], the inhibition at 10 µM in data set [1] (setting [4]) was determined as 78%; in data set [2] (setting [4]), 23%; in data set [3] (setting [4]), 8%.
As to `COc1ccc(C(=O)Nc2ccc(C(=O)CCC(=O)O)cc2)cc1` [Example 27, 4-[4-(4-Methoxy-benzoylamino)-phenyl]-4-oxo-butyric acid], the IC50 in data set [1] is 0.07 µM; in data set [2], 0.34 µM; in data set [3] it was 9.8 µM.
`O=C(O)CCC(=O)c1ccc(NC(=O)c2ccc([N+](=O)[O-])cc2)cc1` [Example 29, 4-[4-(4-Nitro-benzoylamino)-phenyl]-4-oxo-butyric acid]: the IC50 in data set [1] came out at 0.46 µM; in data set [2], 2.4 µM; in data set [3], 40 µM.
On to `CCCC(=O)Nc1ccc(C(=O)CCC(=O)O)cc1` [Example 22, 4-[4-(Butyrylamino)-phenyl]-4-oxo-butyric acid], for which the inhibition at 10 µM in data set [1] (setting [4]) amounted to 62%; in data set [2] (setting [4]), 35%; in data set [3] (setting [4]), 0%.
In the same order, the values of `CCc1ccc(C(=O)Nc2ccc(C(=O)CCC(=O)O)cc2)cc1` [Example 16, 4-[4-(4-Ethyl-benzoylamino)-phenyl]-4-oxo-butyric acid] are 97%, 85% and 60%.
